# Experimental data reported in US10894036B2, “Use of marizomib for the treatment of central nervous system (CNS) cancers” (Celgene International II Sàrl, priority 2016, dated 2021).
# “Also recorded” adds a separate entry of the source. Like-named read-outs stand apart in the source and are kept apart here.
# Columns and labels:
# D54MG cells = assay: Intracranial GBM xenograft survival; format: in vivo; details: athymic BALB/c nu/nu mice, MRZ IV twice weekly
# Method: 1×10^5 D54MG cells implanted into right frontal lobes of athymic BALB/c nu/nu mice. MRZ administered IV twice weekly.
# [1] = test system: WHO Grade IV Malignant Glioma; assay: Phase 1/2 MRZ + BEV and MRZ monotherapy in recurrent G4 MG: tumor response by RANO, PFS, OS; format: in vivo, human; details: for Best Response NE (2), patients: MRZ monotherapy ITT
# Text: The drugs were infused on 28-Day Cycles.
# Tumor response, including PD activity, progression-free survival (PFS), and overall survival (OS) will be assessed. Tumor response will be assessed by the Investigators using RANO 2010 criteria. The overall confirmed response rate will be presented. The response rate, PFS, and OS will also be tabulated by dose cohorts in Part 1 Phase 1 and for all response-evaluable patients in Part 2 Phase 2 and Part 3 Phase 2. Endpoints of response based on tumor assessments will be calculated for subjects who received at least 3 doses of MRZ and had at least 1 post-dose tumor evaluation.
# clinical = details: human
# Method: Blood samples will be taken for peak and trough measurements, pre-dose and immediately prior to (end of infusion) EOI, on Cycle 1 Day 1. On Cycle 1 Day 15 full PK sampling will be done: pre-dose, immediately prior to EOI and then 2, 5, 15, 30, 45, 60, 90 and 120 minutes post infusion. The following PK parameters will be estimated by non-compartmental analysis:
# Non-compartmental analyses will be performed. […] Blood concentrations and computed PK parameters for MRZ will be listed and summarized by cohort (mean, geometric mean, standard deviation, coefficient of variation, minimum, maximum and number of observations).
# For MRZ samples will be obtained before treatment and just prior to end of infusion on Cycle 1 Day 1. On Cycle 1 Day 15, MRZ blood samples will be obtained before treatment, just prior to end of infusion, and 2, 5, 15, 30, 45, 60, 90, and 120 minutes after the infusion. Every effort should be made to collect samples at the prescribed times, but deviations up to 10% of the time point are allowed. […] After blood collection, neutralizing solution must be added.
# proteasome = assay: Proteasome activity in monkey brain; format: in vivo; details: monkey (primate)
# [2] = Quantitative whole body autoradiography: distribution to brain; format: in vivo, rat; details: rats
# Text: The definition of marizomib is understood to include marizomib as well as pharmaceutically acceptable salts, prodrugs, solvates, hydrates, tautomers, or isomers thereof. In specific embodiments, the term marizomib refers to Compound 1 or a pharmaceutically acceptable salt thereof. Without wishing to be bound by theory, marizomib is a proteasome inhibitor with unique features compared to other proteasome inhibitors. For example, marizomib inhibits all three catalytic activities of the proteasome and is capable of crossing the blood brain barrier (BBB). […] Radiolabeled marizomib has shown 30% CNS biodistribution compared with blood levels in rats. Marizomib can elicit a significant anti-tumor effect in a rodent model of malignant glioma.
# recurrent glioma = details: cited from earlier work; for 6 mo OS / 6 mo PFS / 9 mo OS / 9 mo PFS: BEV monotherapy
# [3] = MRZ + BEV N = 10, MRZ monotherapy N = 7
# [4] = MRZ + BEV N = 22, MRZ monotherapy N = 18
# [5] = MRZ monotherapy 0.8 mg/m^2, first 15 recurrent glioma patients
# [6] = whole blood, intravenous, 0.7 mg/m2
# [7] = whole blood, intravenous, 0.8 mg/m2
# [8] = BELOB Trial, BEV monotherapy (Taal et al., 2014)
# [9] = BELOB trial BEV monotherapy arm (Taal et al., 2014)
# [10] = Heiland (Freiburg, Germany), All Pts
# [11] = Heiland (Freiburg, Germany), Methylated
# [12] = Heiland (Freiburg, Germany), Unmethylated MGMT promoter
# [13] = Taal (BELOB), Unmethylated MGMT promoter
# [14] = Wick (EORTC 26101 P2), Methylated
# [15] = Wick (EORTC 26101 P2), Unmethylated MGMT promoter
compound,measurement,setting,value
C[C@@]12OC(=O)[C@]1([C@@H](O)[C@@H]1C=CCCC1)NC(=O)[C@@H]2CCCl [marizomib],activity in intracranial GBM xenograft,D54MG cells,Active
same,OS 6 mo %,[1]; All Patients,64%
same,OS 9 mo %,[1]; All Patients,64%
same,"Median OS, methylated MGMT promoter",[1]; [3],Undefined
same,"Median PFS, methylated MGMT promoter",[1]; [3],1.7 Months
same,"OS 6 Months, methylated",[1]; [3],83%
same,"OS 9 Months, methylated",[1]; [3],83%
same,"Median OS, unmethylated MGMT promoter",[1]; [4],Undefined
same,"Median PFS, unmethylated MGMT promoter",[1]; [4],1.9 Months
same,"OS 6 Months, unmethylated",[1]; [4],65%
same,"OS 9 Months, unmethylated",[1]; [4],65%
same,"partial remission, patients",[1]; [5],1
same,"stable disease, additional patients",[1]; [5],2
same,"Best Response NE (2), patients","[1]; methylated, N = 7",0
same,"Best Response NE (2), patients","[1]; unknown, N = 5",1
same,"Best Response NE (2), patients","[1]; unmethylated, N = 18",1
same,"PFS 3 mo, methylated","[1]; MRZ monotherapy, N = 7",40%
same,"PFS 3 mo, unmethylated","[1]; MRZ monotherapy, N = 18",20%
same,patients on the study for ≥4 cycles,"[1]; MRZ monotherapy, N = 30",Six
same,progression on marizomib alone,"[1]; MRZ monotherapy, N = 30",most patients demonstrated rapid progression
same,"Best Response, Pt 0511","[1]; MRZ monotherapy, 2nd recurrence, current cycle 10",PR (≥50% decrease compared with baseline in the sum of products of perpendicular diameters of all measurable enhancing lesions sustained for at least 4 weeks)
same,OS 6 mo %,[1]; Methylated MGMT Promoter,83%
same,OS 9 mo %,[1]; Methylated MGMT Promoter,83%
same,OS 6 mo %,[1]; Unmethylated MGMT Promoter,65%
same,OS 9 mo %,[1]; Unmethylated MGMT Promoter,65%
same,patients found to respond to marizomib monotherapy,[1]; ≥ stable disease and >4 cycles (Table 38),four
same,Cmax,"clinical; blood, iv, 0.7 mg/m2",64.9 ± 1.73 ng/mL
same,Cmax,"clinical; blood, iv, 0.8 mg/m2",26.5 ± 7.92 ng/mL
same,Tmax,clinical; [6],11.3 min
same,half-life,clinical; [6],32 min
same,AUC(0-t),clinical; [7],4.05 ng·h/mL
same,Cmax,clinical; [7],26 ± 8 ng/mL
same,Tmax,clinical; [7],0 min
same,half-life,clinical; [7],7.6 ± 0.9 min
same,Tmax,"clinical; whole blood, intravenous, […]2",4 min
same,half-life,"clinical; whole blood, intravenous, […]2",8.8 ± 0.8 min
same,AUC(0-t),"clinical; whole blood, iv, 0.7 mg/m2",3.22 ng·h/mL
same,Tmax,"clinical; whole blood, iv, 0.7 mg/m2",21.3 min
same,Vd,"clinical; whole blood, iv, 0.7 mg/m2",48.3 ± 16.1 L
same,half-life,"clinical; whole blood, iv, 0.7 mg/m2",16 ± 8.08 min
same,AUC(0-t),"clinical; whole blood, iv, 0.8 mg/m2",6.53 ng·h/mL
same,Tmax,"clinical; whole blood, iv, 0.8 mg/m2",8 min
same,half-life,"clinical; whole blood, iv, 0.8 mg/m2",7.27 ± 0.423 min
same,Tmax,"clinical; whole blood, iv, […]2",15.5 min
same,Vd,"clinical; whole blood, iv, […]2",54.4 ± 10.6 L
same,half-life,"clinical; whole blood, iv, […]2",8.2 ± 0.8 min
same,proteasome activity in brain,proteasome,inhibition of proteasome activity; also recorded: inhibits proteasome activity
same,distribution to brain relative to plasma Cmax,[2]; quantitative whole body autoradiography,~30%
same,CNS biodistribution compared with blood levels,[2]; radiolabeled marizomib,30%
bevacizumab [reference compound],"6 Months PFS, all patients",recurrent glioma; [8],16%
same,"6 Months PFS, uMGMT Promoter",recurrent glioma; [8],8%
same,"6 mo PFS, All",recurrent glioma; [9],16%
same,"6 mo PFS, uMGMT Promoter",recurrent glioma; [9],8%
same,6 mo OS,"recurrent glioma; Field (CABARET), All Pts",61%
same,6 mo PFS,"recurrent glioma; Field (CABARET), All Pts",18%
same,9 mo OS,"recurrent glioma; Field (CABARET), All Pts",39%
same,9 mo PFS,"recurrent glioma; Field (CABARET), All Pts",6%
same,"6 mo Overall Survival, All Pts",recurrent glioma; Field (CABARET),61%
same,"6 mo Progression Free Survival, All Pts",recurrent glioma; Field (CABARET),18%
same,"9 mo Overall Survival, All Pts",recurrent glioma; Field (CABARET),39%
same,"9 mo Progression Free Survival, All Pts",recurrent glioma; Field (CABARET),6%
same,"12 Mo. Overall Survival, All Pts",recurrent glioma; Field (CABARET),24%
same,6 mo OS,recurrent glioma; [10],18%
same,9 mo OS,recurrent glioma; [10],30%
same,9 mo PFS,recurrent glioma; [10],0%
same,6 mo OS,recurrent glioma; [11],58%
same,6 mo PFS,recurrent glioma; [11],38%
same,9 mo OS,recurrent glioma; [11],40%
same,9 mo PFS,recurrent glioma; [11],22%
same,6 mo OS,recurrent glioma; [12],25%
same,6 mo PFS,recurrent glioma; [12],10%
same,9 mo PFS,recurrent glioma; [12],0%
same,"6 mo Overall Survival, All Pts","recurrent glioma; Heiland (Freiburg, Germany)",18%
same,"6 mo Overall Survival, Methylated","recurrent glioma; Heiland (Freiburg, Germany)",58%
same,"6 mo Overall Survival, Unmethylated","recurrent glioma; Heiland (Freiburg, Germany)",25%
same,"6 mo Progression Free Survival, Methylated","recurrent glioma; Heiland (Freiburg, Germany)",38%
same,"6 mo Progression Free Survival, Unmethylated","recurrent glioma; Heiland (Freiburg, Germany)",10%
same,"9 mo Overall Survival, All Pts","recurrent glioma; Heiland (Freiburg, Germany)",30%
same,"9 mo Overall Survival, Methylated","recurrent glioma; Heiland (Freiburg, Germany)",40%
same,"9 mo Progression Free Survival, All Pts","recurrent glioma; Heiland (Freiburg, Germany)",0%
same,"9 mo Progression Free Survival, Methylated","recurrent glioma; Heiland (Freiburg, Germany)",22%
same,"9 mo Progression Free Survival, Unmethylated","recurrent glioma; Heiland (Freiburg, Germany)",0%
same,"12 Mo. Overall Survival, All Pts","recurrent glioma; Heiland (Freiburg, Germany)",10%
same,"12 Mo. Overall Survival, Methylated","recurrent glioma; Heiland (Freiburg, Germany)",24%
same,"12 Mo. Progression Free Survival, All Pts","recurrent glioma; Heiland (Freiburg, Germany)",0%
same,"12 Mo. Progression Free Survival, Methylated","recurrent glioma; Heiland (Freiburg, Germany)",10%
same,"12 Mo. Progression Free Survival, Unmethylated","recurrent glioma; Heiland (Freiburg, Germany)",0%
same,6 mo OS,"recurrent glioma; Taal (BELOB), All Pts",62%
same,6 mo PFS,"recurrent glioma; Taal (BELOB), All Pts",16%
same,9 mo OS,"recurrent glioma; Taal (BELOB), All Pts",45%
same,9 mo PFS,"recurrent glioma; Taal (BELOB), All Pts",8%
same,6 mo OS,"recurrent glioma; Taal (BELOB), Methylated",83%
same,6 mo PFS,"recurrent glioma; Taal (BELOB), Methylated",33%
same,9 mo OS,"recurrent glioma; Taal (BELOB), Methylated",67%
same,9 mo PFS,"recurrent glioma; Taal (BELOB), Methylated",22%
same,6 mo OS,recurrent glioma; [13],50%
same,6 mo PFS,recurrent glioma; [13],8%
same,9 mo PFS,recurrent glioma; [13],0%
same,"6 mo Overall Survival, All Pts",recurrent glioma; Taal (BELOB),62%
same,"6 mo Overall Survival, Methylated",recurrent glioma; Taal (BELOB),83%
same,"6 mo Overall Survival, Unmethylated",recurrent glioma; Taal (BELOB),50%
same,"6 mo Progression Free Survival, All Pts",recurrent glioma; Taal (BELOB),16%
same,"6 mo Progression Free Survival, Methylated",recurrent glioma; Taal (BELOB),33%
same,"6 mo Progression Free Survival, Unmethylated",recurrent glioma; Taal (BELOB),8%
same,"9 mo Overall Survival, All Pts",recurrent glioma; Taal (BELOB),45%
same,"9 mo Overall Survival, Methylated",recurrent glioma; Taal (BELOB),67%
same,"9 mo Progression Free Survival, Methylated",recurrent glioma; Taal (BELOB),22%
same,"9 mo Progression Free Survival, Unmethylated",recurrent glioma; Taal (BELOB),0%
same,"12 Mo. Overall Survival, All Pts",recurrent glioma; Taal (BELOB),26%
same,"12 Mo. Overall Survival, Methylated",recurrent glioma; Taal (BELOB),56%
same,"12 Mo. Overall Survival, Unmethylated",recurrent glioma; Taal (BELOB),8%
same,"12 Mo. Progression Free Survival, Unmethylated",recurrent glioma; Taal (BELOB),0%
same,6 mo PFS,"recurrent glioma; Wick (EORTC 26101 P2), All Pts",14%
same,9 mo PFS,"recurrent glioma; Wick (EORTC 26101 P2), All Pts",9%
same,6 mo PFS,recurrent glioma; [14],25%
same,9 mo PFS,recurrent glioma; [14],9%
same,6 mo PFS,recurrent glioma; [15],10%
same,9 mo PFS,recurrent glioma; [15],10%
same,"6 mo Progression Free Survival, All Pts",recurrent glioma; Wick (EORTC 26101 P2),14%
same,"6 mo Progression Free Survival, Methylated",recurrent glioma; Wick (EORTC 26101 P2),25%
same,"6 mo Progression Free Survival, Unmethylated",recurrent glioma; Wick (EORTC 26101 P2),10%
same,"9 mo Progression Free Survival, All Pts",recurrent glioma; Wick (EORTC 26101 P2),9%
same,"9 mo Progression Free Survival, Methylated",recurrent glioma; Wick (EORTC 26101 P2),9%
same,"9 mo Progression Free Survival, Unmethylated",recurrent glioma; Wick (EORTC 26101 P2),10%
same,"12 Mo. Progression Free Survival, All Pts",recurrent glioma; Wick (EORTC 26101 P2),8%
same,"12 Mo. Progression Free Survival, Methylated",recurrent glioma; Wick (EORTC 26101 P2),9%
same,"12 Mo. Progression Free Survival, Unmethylated",recurrent glioma; Wick (EORTC 26101 P2),10%
same,6-month progression-free survival (PFS) rate,recurrent glioma; recurrent G4 MG,~43%
same,median overall survival (OS),recurrent glioma; recurrent G4 MG,~9 months
